Assay results reported in patent publication US20180155757A1, “IDENTIFICATION OF BACTERIA THAT ARE RESISTANT TO CARBAPENEMS BY MEMBRANE IMPERVIOUSNESS” (BIOMÉRIEUX, priority 2015, published 2018).
Like-named read-outs stand apart in the source and are kept apart here.

Key:
Assay in all cases: Etest MIC of indicator carbapenems on MH II agar without/with PMBN
Format in all cases: cell-based
[1] = tested on: E. cloacae 1204153 (membrane impermeability); conditions: in µg/mL
Protocol: (§1) The determinations of antibiotic MIC were carried out on solid culture media with the Etest® method. To do this, Etest® strips (bioMérieux, France) were used: • Etest® Imipenem IM 32, and • Etest® Ertapenem ETP 32, and also solid culture media, differing from one another by virtue of their non-inhibitory concentrations of PMBN.
(§2) These solid culture media are prepared in Petri dishes (0=145 mm; V=50 ml) on a base of MH II Agar (Becton Dickinson®, United States), more or less supplemented with PMBN. The PMBN concentrations range from 0 up to concentrations equivalent to one fifth of the MIC of PMBN (⅕ MICPMBN).
(§3) Using a swab and the Retro C80™ rota-plater (bioMérieux, France), the culture media were inoculated with the bacteria, originating from an inoculum of 0.5 McFarland, prepared in 0.85% NaCl solution from colonies subcultured the day before on MH II agar.
(§4) The various Etest® strips are then deposited on the surface of the culture media. After 16 to 20 hours of incubation at 35° C., the MICS were read.
(§5) By way of indicator carbapenems according to the invention, in addition to imipenem (IM) and ertapenem (ETP), meropenem (MP) was also tested. Like the other two antibiotics, meropenem was used in the form of Etest® strips (Etest® Meropenem MP 32 from the company bioMérieux, France).
(§6) The methods used to prepare the new culture media and to carry out the antibiotic-sensitivity tests are identical to those described above.

[2] = tested on: Enterobacter aerogenes EA 5 (porin−); conditions: Klebsiella aerogenes, E. aerogenes EA 5 (porin−)
Protocol: as §1, §2, §3, §4, §5, §6

[3] = tested on: E. cloacae 1008074 (VIM producer)
Protocol: as §1, §2, §3, §4, §5, §6

[4] = tested on: E. cloacae 1204052 (membrane impermeability)
Protocol: as §1, §2, §3, §4, §5, §6

[5] = tested on: K. pneumoniae 1012142 (KPC-2 producer)
Protocol: as §1, §2, §3, §4, §5, §6

[6] = tested on: E. coli 1008078 (VIM producer)
Protocol: as §1, §2, §3, §4, §5, §6

[7] = tested on: K. pneumoniae 1204036 (membrane impermeability)
Protocol: as §1, §2, §3, §4, §5, §6

[8] = tested on: K. pneumoniae 1108003 (KPC-3 producer)
Protocol: as §1, §2, §3, §4, §5, §6

E. coli SAB 108 (porin−) = conditions: Escherichia coli
Protocol: as §1, §2, §3, §4, §5, §6

[9] = tested on: K. pneumoniae KP 55 (porin−); conditions: Klebsiella pneumoniae
Protocol: as §1, §2, §3, §4, §5, §6

[10] = tested on: E. cloacae 1109137 (OXA-48 producer)
Protocol: as §1, §2, §3, §4, §5, §6

[11] = tested on: K. pneumoniae 1103183 (NDM producer)
Protocol: as §1, §2, §3, §4, §5, §6

E. coli SAB 100 (porin−) = conditions: Escherichia coli
Protocol: as §1, §2, §3, §4, §5, §6

[12] = tested on: K. pneumoniae 1204035 (membrane impermeability); conditions: in µg/mL
Protocol: as §1, §2, §3, §4, §5, §6

[13] = tested on: E. cloacae 1204056 (membrane impermeability)
Protocol: as §1, §2, §3, §4, §5, §6

[14] = tested on: K. pneumoniae KP 63 (porin−); conditions: Klebsiella pneumoniae
Protocol: as §1, §2, §3, §4, §5, §6

[15] = tested on: E. cloacae 1204058 (membrane impermeability); conditions: in µg/mL
Protocol: as §1, §2, §3, §4, §5, §6

[16] = tested on: K. pneumoniae 1204039 (membrane impermeability)
Protocol: as §1, §2, §3, §4, §5, §6

[17] = tested on: Enterobacter aerogenes EA 27 (porin−); conditions: Klebsiella aerogenes, E. aerogenes EA 27 (porin−), read-out: MIC
Protocol: as §1, §2, §3, §4, §5, §6

C[C@@H](O)[C@H]1C(=O)N2C(C(=O)O)=C(S[C@@H]3CN[C@H](C(=O)N(C)C)C3)[C@H](C)[C@H]12 [MP, meropenem]
MIC ([1]; [PMBN] 0, Table 4a): 4 | MIC ([1]; [PMBN] 100, Table 4a): 0.75-1 | MIC ([1]; [PMBN] 200, Table 4a): 1 | MIC ([1]; [PMBN] 300, Table 4a): 0.75 | MIC ([2]; [PMBN] 0, Table 4): 3 µg/mL | MIC ([2]; [PMBN] 50 μg/ml): 2 µg/mL | MIC ([2]; [PMBN] 100 μg/ml): 1.5 µg/mL | MIC ([2]; [PMBN] 150 μg/ml): 0.75 µg/mL | MIC ([2]; [PMBN] 200 μg/ml): 0.75 µg/mL | MIC ([3]; [PMBN] 0, Table 4a): 0.38 µg/mL | MIC ([3]; [PMBN] 100, Table 4a): 1.5 µg/mL | MIC ([3]; [PMBN] 200, Table 4a): 1 µg/mL | MIC ([3]; [PMBN] 300, Table 4a): 1.5 µg/mL | MIC ([4]; [PMBN] 0, Table 4a): 6 µg/mL | MIC ([4]; [PMBN] 100, Table 4a): 0.75 µg/mL | MIC ([4]; [PMBN] 200, Table 4a): 1.5 µg/mL | MIC ([4]; [PMBN] 300, Table 4a): 0.5 µg/mL | MIC ([5]; [PMBN] 0, Table 4a): > 32 µg/mL | MIC ([5]; [PMBN] 100, Table 4a): > 32 µg/mL | MIC ([5]; [PMBN] 200, Table 4a): > 32 µg/mL | MIC ([5]; [PMBN] 300, Table 4a): > 32 µg/mL | MIC ([6]; [PMBN] 0, Table 4a): 0.5 µg/mL | MIC ([6]; [PMBN] 100, Table 4a): 0.5 µg/mL | MIC ([6]; [PMBN] 200, Table 4a): 0.25 µg/mL | MIC ([6]; [PMBN] 300, Table 4a): 0.25 µg/mL | MIC ([7]; [PMBN] 0, Table 4a): 32 µg/mL | MIC ([7]; [PMBN] 100, Table 4a): 16 µg/mL | MIC ([7]; [PMBN] 200, Table 4a): 6 µg/mL | MIC ([7]; [PMBN] 300, Table 4a): 4 µg/mL | MIC ([8]; [PMBN] 0, Table 4a): 6 µg/mL | MIC ([8]; [PMBN] 100, Table 4a): > 32 µg/mL | MIC ([8]; [PMBN] 200, Table 4a): > 32 µg/mL | MIC ([8]; [PMBN] 300, Table 4a): 4 µg/mL | MIC (E. coli SAB 108 (porin−); [PMBN] 0): 2 µg/mL | MIC (E. coli SAB 108 (porin−); [PMBN] 50 μg/ml): 0.125 µg/mL | MIC (E. coli SAB 108 (porin−); [PMBN] 100 μg/ml): 0.125 µg/mL | MIC (E. coli SAB 108 (porin−); [PMBN] 150 μg/ml): 0.094 µg/mL | MIC (E. coli SAB 108 (porin−); [PMBN] 200 μg/ml): 0.094 µg/mL | MIC ([9]; [PMBN] 0): 0.19 µg/mL | MIC ([9]; [PMBN] 50 μg/ml): 0.125 µg/mL | MIC ([9]; [PMBN] 100 μg/ml): 0.064 µg/mL | MIC ([9]; [PMBN] 150 μg/ml): 0.064 µg/mL | MIC ([9]; [PMBN] 200 μg/ml): 0.047 µg/mL | MIC ([10]; [PMBN] 0, Table 4a): 3 µg/mL | MIC ([10]; [PMBN] 100, Table 4a): 3 µg/mL | MIC ([10]; [PMBN] 200, Table 4a): 1.5 µg/mL | MIC ([10]; [PMBN] 300, Table 4a): 2 µg/mL | MIC ([11]; [PMBN] 0, Table 4a): > 32 µg/mL | MIC ([11]; [PMBN] 100, Table 4a): > 32 µg/mL | MIC ([11]; [PMBN] 200, Table 4a): 24 µg/mL | MIC ([11]; [PMBN] 300, Table 4a): > 32 µg/mL | MIC (E. coli SAB 100 (porin−); [PMBN] 0): 0.125 µg/mL | MIC (E. coli SAB 100 (porin−); [PMBN] 50 μg/ml): 0.094 µg/mL | MIC (E. coli SAB 100 (porin−); [PMBN] 100 μg/ml): 0.047 µg/mL | MIC (E. coli SAB 100 (porin−); [PMBN] 150 μg/ml): 0.032 µg/mL | MIC (E. coli SAB 100 (porin−); [PMBN] 200 μg/ml): 0.032 µg/mL | MIC ([12]; [PMBN] 0, Table 4a): 8-12 | MIC ([12]; [PMBN] 100, Table 4a): 2 | MIC ([12]; [PMBN] 200, Table 4a): 1.5 | MIC ([12]; [PMBN] 300, Table 4a): 1.5 | MIC ([13]; [PMBN] 0, Table 4a): 12 µg/mL | MIC ([13]; [PMBN] 100, Table 4a): 2 µg/mL | MIC ([13]; [PMBN] 200, Table 4a): 1 µg/mL | MIC ([13]; [PMBN] 300, Table 4a): 0.75 µg/mL | MIC ([14]; [PMBN] 0): 0.25 µg/mL | MIC ([14]; [PMBN] 50 μg/ml): 0.25 µg/mL | MIC ([14]; [PMBN] 100 μg/ml): 0.094 µg/mL | MIC ([14]; [PMBN] 150 μg/ml): 0.064 µg/mL | MIC ([14]; [PMBN] 200 μg/ml): 0.023 µg/mL | MIC ([15]; [PMBN] 0, Table 4a): >32 | MIC ([15]; [PMBN] 100, Table 4a): 2 | MIC ([15]; [PMBN] 200, Table 4a): 0.75 | MIC ([15]; [PMBN] 300, Table 4a): 0.25 | MIC ([16]; [PMBN] 0, Table 4a): 0.75 µg/mL | MIC ([16]; [PMBN] 100, Table 4a): 0.5 µg/mL | MIC ([16]; [PMBN] 200, Table 4a): 0.38 µg/mL | MIC ([16]; [PMBN] 300, Table 4a): 0.38 µg/mL | MIC ([17]; [PMBN] 0, Table 4): 4 µg/mL | MIC ([17]; [PMBN] 50 μg/ml): 0.75 µg/mL | MIC ([17]; [PMBN] 100 μg/ml): 0.5 µg/mL | MIC ([17]; [PMBN] 150 μg/ml): 0.19 µg/mL | MIC ([17]; [PMBN] 200 μg/ml): 0.094 µg/mL
